Source: ChEMBL document CHEMBL3507680, “University of Dundee, Gates Library screen for HepG2 cell viability”

Assay: Human HepG2 cell viability assay in 384 well format
Assay type: toxicity, cell-based
Design: dose 125 nL, time 70.5 hour; cytotoxicity at 70.5 h: concentration not given beside the values
Conditions: HepG2 cells, read-out: Inhibition

SMILES	cytotoxicity at 70.5 h [%]
Cc1nc2c(c(N(C)CC3Cc4ccccc4CN3C)n1)CCNCC2 (configuration not stated)	11.4
Cn1cc(CN2CCCC(Cn3cc(CCCO)nn3)C2)cn1 (configuration not stated)	-7.9
CS(=O)(=O)NCCC1CCCN(Cc2ccccc2F)C1 (configuration not stated)	-7.9
CCN(CC)CCNCc1cc(O)c2cc(C)ccc2n1	-11.3
N#Cc1ccc(N2CCCC(CO)(CCOc3ccccc3)C2)nc1 (configuration not stated)	-6.22
CCn1cnc(NC(=O)NCC2CCS(=O)(=O)CC2)n1	-19.4
O=C(c1cccc(-c2ncc[nH]2)c1)N1CCC(N2CCCC(O)C2)CC1 (configuration not stated)	4.83
O=C(O)c1ccc(N2CCC(Oc3ccc(Cl)cc3)CC2)nc1	-12.3
CS(=O)(=O)Cc1nc(CCc2ccccc2)nn1-c1ccccn1	-10.4
O=C(O)c1ccnc(-c2ccnc(NCCc3nc4c(s3)CCC4)n2)c1	-6.73
CCOc1ccccc1-n1c(C2CC2)n[nH]c1=O	-16.7
Cc1cc2ncn(C[C@]3(O)CCCN4CCCC[C@@H]43)c2cc1C	-15
Cc1ccc(OCC2CCCN(Cc3ccc(CO)o3)C2)cc1 (configuration not stated)	-3.39
C=C(C)COc1cccc(C(=O)N(C)Cc2cc(CC)no2)c1	-3.37
CC1=CCN(S(=O)(=O)c2cccc(C(=O)N3CCOCC3)c2)CC1	-15.8
O=C(NCCc1ccccc1)c1cccc(S(=O)(=O)NC2CCOC2)c1 (configuration not stated)	19.4
Cc1ncnc(N2CCN(C(=O)C3CC4(CCNCC4)CN3)CC2)c1C (configuration not stated)	13.5
CCS(=O)(=O)c1ncc(CN2CCSCC2)n1CCc1ccccc1	-11.3
CN(C)C(C(=O)N1CC(Oc2ccccc2F)C1)c1ccc(F)cc1 (configuration not stated)	-0.723

SMILES	cytotoxicity at 70.5 h [%]
COc1ccc(C(=O)N2CC[C@](C)(O)[C@H](C)C2)cc1N1CCOCC1	-8.2
Cc1n[nH]c(C)c1CCC(=O)NCC1CCCN(C2CCCC2)C1 (configuration not stated)	30.3
CCOc1cccc(C2CC(=O)NCc3nc(N4CCCC4)sc32)c1 (configuration not stated)	-3
COCc1cc(N(C)CCC(O)c2ccccc2)n2nccc2n1 (configuration not stated)	-7.44
COC[C@]1(O)CCN(Cc2cnc(N(C)C)nc2)CC1(C)C	-18.8
Cc1ccccc1C(C(=O)NCCSC(C)C)N(C)C (configuration not stated)	-9.38
Cc1cc(NCCc2nnc(N)s2)nc(-c2ccccc2)n1	-2.76
c1cnc(N2CCC(c3nccn3CC3CC3)CC2)nc1	-2.28
Cn1cc(C2=CCN(CCC(=O)NCc3ccc(Cl)cc3)CC2)cn1	-2.89
CC(C)n1cc(-c2c(C#N)c(N)nc3c2COCC3)cn1	10.2
Cc1ccc(C(=O)N2C[C@H]3CC[C@@H]2CN(S(=O)(=O)N(C)C)C3)c(O)c1	14.2
CN1C[C@@H](n2cnc(-c3ccccc3)c2-c2ncc[nH]2)C[C@H]1C(=O)O	5.36
CN1N=C(C(=O)N2CCCC(CCc3cccc(F)c3)C2)CCC1=O (configuration not stated)	-3.78
COc1ccc(NC2CCCN(Cc3cnc(N(C)C)s3)C2)cc1OC (configuration not stated)	-12
Cc1ccc2nc(CN3CCCCC3CCN3CCOCC3)cn2c1 (configuration not stated)	-10.8
CC(c1ccccn1)N(C)Cc1ccc(CCC(C)(C)O)cc1 (configuration not stated)	-1.13
CSCC1CCN(C(=O)Cn2ncc(N3CCCCC3)cc2=O)CC1	-16.3
CC(C)CN1CC2(CCN(C(=O)c3cnccn3)CC2)CC1=O	-15
CCc1cc(N(C)Cc2[nH]nc3c2CCC3)nc(N2CCOCC2)n1	-15.5

SMILES	cytotoxicity at 70.5 h [%]
Cc1cccc(-n2cc(CN3CCN(C)[C@@H]4CS(=O)(=O)C[C@@H]43)cn2)c1	-15.9
O=C1CSc2ccccc2N1CC(=O)N1CCCCC1c1nccs1 (configuration not stated)	-8.8
OCc1csc(N2CCCC(COc3cccc(F)c3)C2)n1 (configuration not stated)	-9.22
Cn1ncc(N2CCOC(CCNC(=O)N3CCCCC3)C2)cc1=O (configuration not stated)	-6.9
CN(CCCO)Cc1cc(Cl)ccc1OCC(O)CN1CCCCCC1 (configuration not stated)	-7.24
CCN(C)C(=O)c1ccc(N2CCC(Oc3cccc(F)c3)CC2)nc1	-4.75
Cc1ccc(OC2CCN(C(=O)C(C)Cn3cccn3)CC2)cc1 (configuration not stated)	0.0943
COc1ccc(-n2nc(C)c(C(C)=O)c2C)cc1C(N)=O	2.1
Cc1cn(Cc2nc(CC(C)C)nn2-c2ccccn2)c(=O)[nH]c1=O	-1.31
O=C(Nc1ccc(F)cc1)C1CNCCN1C(=O)CCc1cccnc1 (configuration not stated)	-5.37
Cn1ccnc1C1CCN(CCN2CCOCC2)CC1	-8.74
O=C(N1CCOCC(O)C1)C1(c2ccc(Cl)cc2)CCC1 (configuration not stated)	21.7
CCC(C)N(Cc1cccnc1)C(=O)CCSC (configuration not stated)	-8.8
COC(=O)[C@@H](NC(=O)c1coc(COc2cccc(F)c2F)n1)C(C)C	-11.7
CN(Cc1ccoc1)C(=O)C1CCN(C(=O)C2CCCC2)CC1	27.9
CC(C)=CCCC1(C)CCC(=O)N(CCc2nc(N)cc(O)n2)C1 (configuration not stated)	-6.54
COc1ccc(C(=O)N2CCC3(CCC(=O)N(C(C)C)C3)CC2)cc1C	-6.63
NC1CCN(C(=O)c2cnc(Cc3c(Cl)cccc3Cl)nc2O)C1 (configuration not stated)	13.3
CC(=O)c1c(C)nn(CC(=O)N2Cc3cnc(CC(C)C)nc3C2)c1C	-8.3
